The source made the active and inactive calls. No cut-off for these calls is given here.
Key:
[1] = target: T1, Adenosine receptor A2b (Homo sapiens) (UniProt P29275); assay: Agonist activity at human A2BAR expressed in FlpIn-CHO cells assessed as […] cAMP accumulation preincubated for 40 mins followed by forskolin addition measured after 30 mins by Alphascreen assay relative to control; type: functional, cell-based
T1 sequence (whole entry): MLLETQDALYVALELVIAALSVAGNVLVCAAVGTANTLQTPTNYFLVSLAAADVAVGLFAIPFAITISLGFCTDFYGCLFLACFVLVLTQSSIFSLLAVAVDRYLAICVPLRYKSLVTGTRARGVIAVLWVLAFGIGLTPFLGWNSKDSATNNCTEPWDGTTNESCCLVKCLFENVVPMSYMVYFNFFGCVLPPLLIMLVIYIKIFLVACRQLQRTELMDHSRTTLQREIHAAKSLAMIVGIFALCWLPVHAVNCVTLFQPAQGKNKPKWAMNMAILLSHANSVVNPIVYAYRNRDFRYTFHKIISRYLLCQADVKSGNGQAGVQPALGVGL

Adenosine receptor A1 [2] = target: T2, Adenosine receptor A1 (Homo sapiens, UniProt P30542); assay: Agonist activity at human A1AR expressed in FlpIn-CHO cells assessed as inhibition of forskolin-stimulated cAMP accumulation preincubated for 10 mins followed by forskolin addition measured after 30 mins by Alphascreen assay; type: functional, cell-based
T2 sequence (P30542 whole entry): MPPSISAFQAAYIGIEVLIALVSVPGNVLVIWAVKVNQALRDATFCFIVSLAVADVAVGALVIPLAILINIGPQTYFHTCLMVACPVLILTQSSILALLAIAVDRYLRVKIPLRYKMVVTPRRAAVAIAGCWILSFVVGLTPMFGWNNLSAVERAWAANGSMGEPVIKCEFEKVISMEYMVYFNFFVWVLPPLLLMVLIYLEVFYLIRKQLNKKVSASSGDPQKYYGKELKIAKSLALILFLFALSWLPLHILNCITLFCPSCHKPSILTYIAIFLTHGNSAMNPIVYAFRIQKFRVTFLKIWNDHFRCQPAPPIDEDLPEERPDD

[3] = target: T3, Adenosine receptor A3 (Homo sapiens) (UniProt P0DMS8); assay: Agonist activity at human A3AR expressed in FlpIn-CHO cells assessed as inhibition of forskolin-stimulated cAMP accumulation preincubated for 10 mins followed by forskolin addition measured after 30 mins by Alphascreen assay relative to control; type: functional, cell-based
T3 sequence (whole entry): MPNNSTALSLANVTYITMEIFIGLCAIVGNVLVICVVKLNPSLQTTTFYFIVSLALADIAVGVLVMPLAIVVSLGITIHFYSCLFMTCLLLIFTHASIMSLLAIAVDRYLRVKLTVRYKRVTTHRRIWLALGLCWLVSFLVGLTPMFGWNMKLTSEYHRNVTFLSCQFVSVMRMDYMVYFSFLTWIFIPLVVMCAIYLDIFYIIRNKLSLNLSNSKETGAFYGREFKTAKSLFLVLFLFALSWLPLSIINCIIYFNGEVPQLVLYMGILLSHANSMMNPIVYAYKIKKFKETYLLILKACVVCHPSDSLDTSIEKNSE

Adenosine receptor A1 [4] = target: T2, Adenosine receptor A1; assay: Agonist activity at human A1AR expressed in FlpIn-CHO cells assessed as intracellular calcium mobilization by Fluo-4 dye-based fluorescence assay relative to control; type: cell-based
Adenosine receptor A3 = target: T4, Adenosine receptor A3 (Homo sapiens, UniProt P0DMS8); assay: Agonist activity at human A3AR expressed in FlpIn-CHO cells assessed as inhibition of forskolin-stimulated cAMP accumulation preincubated for 10 mins followed by forskolin addition measured after 30 mins by Alphascreen assay
T4 sequence (P0DMS8 whole entry): T3 sequence (whole entry)

Adenosine receptor A1 [5] = target: T2, Adenosine receptor A1; assay: Agonist activity at human A1AR expressed in FlpIn-CHO cells assessed as intracellular calcium mobilization by measuring agonist transduction coefficient by Fluo-4 dye-based fluorescence assay; type: cell-based
Adenosine receptor A1 [6] = target: T2, Adenosine receptor A1; assay: Agonist activity at human A1AR expressed in FlpIn-CHO cells assessed as intracellular calcium mobilization by Fluo-4 dye-based fluorescence assay; type: cell-based
Adenosine receptor A2b = target: T5, Adenosine receptor A2b (Homo sapiens, UniProt P29275); assay: Agonist activity at human A2BAR expressed in FlpIn-CHO cells assessed as […] cAMP accumulation preincubated for 40 mins followed by forskolin addition measured after 30 mins by Alphascreen assay; type: functional, cell-based
T5 sequence (P29275 whole entry): T1 sequence (whole entry)

Adenosine receptor A2a = Adenosine receptor A2a (Homo sapiens, UniProt P29274); assay: Agonist activity at human A2A-AR expressed in FlpIn-CHO cells assessed as inhibition of forskolin-stimulated cAMP accumulation preincubated for 40 mins followed by forskolin addition measured after 30 mins by Alphascreen assay
[7] = target: T3, Adenosine receptor A3 (Homo sapiens); assay: Agonist activity at human A3AR expressed in FlpIn-CHO cells assessed as inhibition of forskolin-stimulated cAMP accumulation up to 10 uM preincubated for 10 mins followed by forskolin addition measured after 30 mins by Alphascreen assay; type: functional, cell-based

Adenosine receptor A2a, sequence (P29274 whole entry): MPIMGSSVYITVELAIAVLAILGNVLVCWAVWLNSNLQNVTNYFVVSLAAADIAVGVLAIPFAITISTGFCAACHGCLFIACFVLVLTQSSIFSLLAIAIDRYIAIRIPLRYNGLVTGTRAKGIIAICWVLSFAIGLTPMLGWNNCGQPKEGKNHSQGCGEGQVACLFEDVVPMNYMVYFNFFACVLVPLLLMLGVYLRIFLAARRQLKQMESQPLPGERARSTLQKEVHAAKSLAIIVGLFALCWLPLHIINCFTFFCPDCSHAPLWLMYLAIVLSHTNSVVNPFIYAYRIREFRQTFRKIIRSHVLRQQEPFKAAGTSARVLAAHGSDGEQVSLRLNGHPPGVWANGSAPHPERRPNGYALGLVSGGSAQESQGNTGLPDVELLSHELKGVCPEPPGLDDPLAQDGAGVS

## Nc1sc(-c2ccccc2C(=O)NCCCCCCNc2ncnc3c2ncn3[C@@H]2O[C@H](CO)[C@@H](O)[C@H]2O)c(-c2cccc(C(F)(F)F)c2)c1C(=O)c1ccccc1
[1]
  Emax: 46%
Adenosine receptor A1 [2]
  EC50: 1290 nM
[3]
  Emax: 103%
Adenosine receptor A1 [4]
  Emax: 43%
Adenosine receptor A3
  EC50: 282 nM
Adenosine receptor A1 [5]
  log(activity): 5.74
Adenosine receptor A1 [6]
  EC50: 1350 nM
Adenosine receptor A2b
  EC50: 288 nM

## Nc1sc(-c2ccc(C(=O)NCCCCCCNc3nc(Cl)nc4c3ncn4[C@@H]3O[C@H](CO)[C@@H](O)[C@H]3O)cc2)c(-c2cccc(C(F)(F)F)c2)c1C(=O)c1ccccc1
Adenosine receptor A2a
  EC50: 145 nM
[1]
  Emax: 39%
Adenosine receptor A1 [2]
  EC50: 224 nM
[7]
  inhibition: inactive
Adenosine receptor A1 [4]
  Emax: 20%
Adenosine receptor A1 [5]
  log(activity): 6.32
Adenosine receptor A1 [6]
  EC50: 135 nM
Adenosine receptor A2b
  EC50: 18.6 nM

## Nc1sc(-c2ccc(C(=O)NCCCCCNc3ncnc4c3ncn4[C@@H]3O[C@H](CO)[C@@H](O)[C@H]3O)cc2)c(-c2cccc(C(F)(F)F)c2)c1C(=O)c1ccccc1
Adenosine receptor A2a
  EC50: 3630 nM
[1]
  Emax: 52%
Adenosine receptor A1 [2]
  EC50: 95.5 nM
Adenosine receptor A1 [4]
  Emax: 31%
Adenosine receptor A3
  EC50: > 1000 nM
Adenosine receptor A1 [5]
  log(activity): 6.11
Adenosine receptor A1 [6]
  EC50: 74.1 nM
Adenosine receptor A2b
  EC50: 63.1 nM

## CCNC(=O)[C@H]1O[C@@H](n2cnc3c(N)ncnc32)[C@H](O)[C@@H]1O [NECA]
[3]
  Emax: 97%
Adenosine receptor A1 [4]
  Emax: 54%

## O=C(NCCCCCCNc1ncnc2c1ncn2[C@@H]1O[C@H](CO)[C@@H](O)[C@H]1O)c1cccc(-c2cccs2)c1
Adenosine receptor A2a
  EC50: 1320 nM
[1]
  Emax: 42%
Adenosine receptor A1 [2]
  EC50: 234 nM
[3]
  Emax: 107%
Adenosine receptor A1 [4]
  Emax: 49%
Adenosine receptor A3
  EC50: 832 nM
Adenosine receptor A1 [5]
  log(activity): 7.38
Adenosine receptor A1 [6]
  EC50: 35.5 nM
Adenosine receptor A2b
  EC50: 17.8 nM

## CCNC(=O)[C@H]1O[C@@H](n2cnc3c(NCCCCCCNC(=O)c4ccc(-c5sc(N)c(C(=O)c6ccccc6)c5-c5cccc(C(F)(F)F)c5)cc4)ncnc32)[C@H](O)[C@@H]1O
Adenosine receptor A2a
  EC50: 56.2 nM
[1]
  Emax: 38%
Adenosine receptor A1 [2]
  EC50: 97.7 nM
[3]
  Emax: 75%
Adenosine receptor A1 [4]
  Emax: 16%
Adenosine receptor A3
  EC50: 1410 nM
Adenosine receptor A1 [5]
  log(activity): 6.33
Adenosine receptor A1 [6]
  EC50: 56.2 nM
Adenosine receptor A2b
  EC50: 75.9 nM

## Nc1sc(-c2cccc(C(=O)NCCCCCCNc3ncnc4c3ncn4[C@@H]3O[C@H](CO)[C@@H](O)[C@H]3O)c2)c(-c2cccc(C(F)(F)F)c2)c1C(=O)c1ccccc1
Adenosine receptor A2a
  EC50: 148 nM
[1]
  Emax: 43%
Adenosine receptor A1 [2]
  EC50: 105 nM
[3]
  Emax: 80%
Adenosine receptor A1 [4]
  Emax: 48%
Adenosine receptor A3
  EC50: 123 nM
Adenosine receptor A1 [5]
  log(activity): 6.98
Adenosine receptor A1 [6]
  EC50: 93.3 nM
Adenosine receptor A2b
  EC50: 35.5 nM

## CC(=O)Nc1sc(-c2ccc(C(=O)NCCCCCCNc3ncnc4c3ncn4[C@@H]3O[C@H](CO)[C@@H](O)[C@H]3O)cc2)c(-c2cccc(C(F)(F)F)c2)c1C(=O)c1ccccc1
Adenosine receptor A2a
  EC50: 2340 nM
[1]
  Emax: 44%
Adenosine receptor A1 [2]
  EC50: 138 nM
[3]
  Emax: 60%
Adenosine receptor A1 [4]
  Emax: 20%
Adenosine receptor A3
  EC50: 447 nM
Adenosine receptor A1 [5]
  log(activity): 5.02
Adenosine receptor A1 [6]
  EC50: 891 nM
Adenosine receptor A2b
  EC50: 617 nM

## Nc1sc(-c2ccc(C(=O)NCCCCCCNc3ncnc4c3ncn4[C@@H]3O[C@H](CO)[C@@H](O)[C@H]3O)cc2)c(-c2cccc(C(F)(F)F)c2)c1C(=O)c1ccccc1
Adenosine receptor A2a
  EC50: 2290 nM

## O=C(NCCCCCCNc1ncnc2c1ncn2[C@@H]1O[C@H](CO)[C@@H](O)[C@H]1O)c1ccc(-c2scc(C(=O)c3ccccc3)c2-c2cccc(C(F)(F)F)c2)cc1
Adenosine receptor A2a
  EC50: 2880 nM
[1]
  Emax: 49%
Adenosine receptor A1 [2]
  EC50: 110 nM
Adenosine receptor A1 [4]
  Emax: 40%
Adenosine receptor A3
  EC50: > 1000 nM
Adenosine receptor A1 [5]
  log(activity): 5.74
Adenosine receptor A1 [6]
  EC50: 562 nM
Adenosine receptor A2b
  EC50: 148 nM

## O=C(NCCCCCCNc1ncnc2c1ncn2[C@@H]1O[C@H](CO)[C@@H](O)[C@H]1O)c1cccc(-c2cc(C(=O)c3ccccc3)cs2)c1
Adenosine receptor A2a
  EC50: 437 nM
[1]
  Emax: 27%
Adenosine receptor A1 [2]
  EC50: 138 nM
[3]
  Emax: 74%
Adenosine receptor A1 [4]
  Emax: 39%
Adenosine receptor A3
  EC50: 407 nM
Adenosine receptor A1 [5]
  log(activity): 6.91
Adenosine receptor A1 [6]
  EC50: 87.1 nM
Adenosine receptor A2b
  EC50: 158 nM

## Nc1ccc(-c2cccc(C(=O)NCCCCCCNc3ncnc4c3ncn4[C@@H]3O[C@H](CO)[C@@H](O)[C@H]3O)c2)s1
Adenosine receptor A2a
  EC50: 1070 nM
[1]
  Emax: 45%
[3]
  Emax: 72%
Adenosine receptor A1 [4]
  Emax: 47%
Adenosine receptor A3
  EC50: 64.6 nM
Adenosine receptor A1 [5]
  log(activity): 7.4
Adenosine receptor A1 [6]
  EC50: 34.7 nM
Adenosine receptor A2b
  EC50: 60.3 nM

## Nc1sc(-c2ccc(C(=O)NCCCCCCNc3ncnc4c3ncn4[C@@H]3O[C@H](CO)[C@@H](O)[C@H]3O)cc2)cc1C(=O)c1ccccc1
Adenosine receptor A2a
  EC50: 355 nM
[1]
  Emax: 40%
Adenosine receptor A1 [2]
  EC50: 41.7 nM
[3]
  Emax: 85%
Adenosine receptor A1 [4]
  Emax: 49%
Adenosine receptor A3
  EC50: 447 nM
Adenosine receptor A1 [5]
  log(activity): 7.43
Adenosine receptor A1 [6]
  EC50: 29.5 nM
Adenosine receptor A2b
  EC50: 224 nM

## Nc1sc(-c2ccc(C(=O)NCCCCCCCNc3ncnc4c3ncn4[C@@H]3O[C@H](CO)[C@@H](O)[C@H]3O)cc2)c(-c2cccc(C(F)(F)F)c2)c1C(=O)c1ccccc1
Adenosine receptor A2a
  EC50: 4900 nM
[1]
  Emax: 38%
Adenosine receptor A1 [2]
  EC50: 22.9 nM
[3]
  Emax: 56%
Adenosine receptor A1 [4]
  Emax: 28%
Adenosine receptor A3
  EC50: 331 nM
Adenosine receptor A1 [5]
  log(activity): 5.58
Adenosine receptor A1 [6]
  EC50: 200 nM
Adenosine receptor A2b
  EC50: 468 nM

## O=C(NCCCCCCNc1ncnc2c1ncn2[C@@H]1O[C@H](CO)[C@@H](O)[C@H]1O)c1ccc(-c2sccc2-c2cccc(C(F)(F)F)c2)cc1
Adenosine receptor A2a
  EC50: 646 nM
[1]
  Emax: 44%
Adenosine receptor A1 [2]
  EC50: 170 nM
[3]
  Emax: 26%
Adenosine receptor A1 [4]
  Emax: 49%
Adenosine receptor A3
  EC50: 347 nM
Adenosine receptor A1 [5]
  log(activity): 7.03
Adenosine receptor A1 [6]
  EC50: 77.6 nM
Adenosine receptor A2b
  EC50: 91.2 nM

## Nc1cc(-c2cccc(C(F)(F)F)c2)c(-c2ccc(C(=O)NCCCCCCNc3ncnc4c3ncn4[C@@H]3O[C@H](CO)[C@@H](O)[C@H]3O)cc2)s1
Adenosine receptor A2a
  EC50: 2690 nM
[1]
  Emax: 28%
Adenosine receptor A1 [2]
  EC50: 38 nM
[3]
  Emax: 58%
Adenosine receptor A1 [4]
  Emax: 42%
Adenosine receptor A3
  EC50: 282 nM
Adenosine receptor A1 [5]
  log(activity): 6.86
Adenosine receptor A1 [6]
  EC50: 110 nM
Adenosine receptor A2b
  EC50: 447 nM

From ChEMBL document CHEMBL4043287, “A Structure-Activity Relationship Study of Bitopic N6-Substituted Adenosine Derivatives as Biased Adenosine A1 Receptor Agonists” (J Med Chem, 2018)
